Test results as given in US4999444A, “Novel neutral mixed ligand platinum(II) and platinum(IV) complexes” (Warner-Lambert Co., priority 1989, dated 1991).
Read-outs that look alike come from different tables or passages of the source.

Experiments:
P388Pt4 = experiment: In vitro cytotoxicity (ID50, 72 h growth inhibition), P388Pt4; format: cell-based, murine; details: for ID50: in vitro, 72 h
Method: (§1) ID50 values are the concentration of complex required to inhibit the in vitro growth of treated cells to a level of 50% of that for untreated cells over a 72-hour period. The cell lines are suspended in appropriate media at a concentration which results in the cells remaining in log phase growth throughout the treatment period. Serially diluted drug is added to duplicate wells containing the cell growth. After 72 hours of incubation of the cell lines in 5% CO2, the cells are counted and the ID50 values determined.
(§2) Resistance ratio values shown in Table 1 were calculated by dividing the ID50 values against the resistant cell lines by the ID50 values against the normal cell lines. The resistance ratio values shown in the table indicate a measure of the degree of resistance of the cell line to a particular drug.

[1] = system: P-388/Pt (Cisplatin Resistant); experiment: In vivo antitumor activity, P-388 (Lymphocytic Leukemia), P-388/Pt (Cisplatin Resistant); parameters: species or system mice (murine leukemia); details: IP, Days 1, 5, 9; for % T/C: best responses
Text: (§3) The screening tests employing these cell lines are described in Geran et al., "Protocols for Screening Chemical Agents and Natural Products Against Animal Tumors and Other Biological Systems," Cancer Chemotherapy Reports, Part 3, Vol. 3, No. 2, pages 1-85 (1972). The L1210 and P388 screening methods have been cited as the best tools for predicting clinical utility of drugs in the treatment of human solid tumors as well as human leukemias and lymphomas (Venditti, "Relevance of Transplantable Animal-Tumor Systems to the Selection of New Agents for Clinical Trial," Pharmacological Basis of Cancer Chemotherapy, […] Pub. Co. (1975)).
^g Schedule: Days 1, 5, 9

L1210PtR4 = experiment: In vitro cytotoxicity (ID50, 72 h growth inhibition), L1210PtR4; format: cell-based, murine; details: for ID50: in vitro, 72 h
Method: as §1, §2

L-1210 Leukemia = experiment: In vivo antitumor activity in mice, L-1210 Leukemia; parameters: species or system mice (murine leukemia); details: IP, Days 3, 7, 11; for % T/C: best responses
Text: as §3
In Table 2, the ratio of median survival time of laboratory mice which had been treated with the test compound to untreated control animals is expressed as a percentage (%T/C values). […] Data for the prior art complex cisplatin is included for comparison.
^a Inoculum: 10,000 cells (IP)
^b Schedule: Days 3, 7, 11

[2] = system: L-1210/Pt Leukemia (Cisplatin Resistant); experiment: In vivo antitumor activity in mice, L-1210/Pt Leukemia (Cisplatin Resistant); parameters: species or system mice (murine leukemia); details: IP, Days 3, 7, 11; for % T/C: best responses
L1210DDP5 = experiment: In vitro cytotoxicity (ID50, 72 h growth inhibition), L1210DDP5; format: cell-based, murine; details: for ID50: in vitro, 72 h
Method: as §1, §2

P388S = experiment: In vitro cytotoxicity (ID50, 72 h growth inhibition), P388S; format: cell-based, murine
Method: as §1

L1210DACH = experiment: In vitro cytotoxicity (ID50, 72 h growth inhibition), L1210DACH (Pt(DACH)Cl2-resistant L1210); format: cell-based, murine; details: for ID50: in vitro, 72 h
Method: as §1, §2

L1210S = experiment: In vitro cytotoxicity (ID50, 72 h growth inhibition), L1210S; format: cell-based, murine
Method: as §1

[3] = system: cisplatin-resistant cells; experiment: Activity against cisplatin-resistant cells in vitro and in vivo; parameters: species or system murine
Method: as §1, §2
(§4) In Table 2, the ratio of median survival time of laboratory mice which had been treated with the test compound to untreated control animals is expressed as a percentage (%T/C values). Laboratory mice were implanted intraperitonealy with the L1210 murine leukemia cell line on Day 0 and treated with intraperitoneal injections of representative platinum complexes of the present invention on Days 3 and 7 at the dosages indicated. Data for the prior art complex cisplatin is included for comparison.

[4] = system: L1210 and P388 murine leukemia cell lines; experiment: Antitumor activity in L1210 and P388 murine leukemia, in vitro and in vivo; details: in vitro and in vivo test results
Method: as §1, §3
In Table 2, the ratio of median survival time of laboratory mice which had been treated with the test compound to untreated control animals is expressed as a percentage (%T/C values). […]

[5] = system: parent L1210 and P388 leukemia cell lines; experiment: In vivo activity against parent L1210 and P388 leukemia; parameters: species or system mice (murine leukemia)
Text: as §3, §4

[6] = first pair of lines, 5.0 mg/kg/injection
[7] = second pair of lines, 5.0 mg/kg/injection
[8] = ID50 resistant line / ID50 normal line, 4320 min
[9] = first pair of lines, 3.7 mg/kg/injection
[10] = second pair of lines, 3.7 mg/kg/injection

SMILES: N.N.[Cl][Pt][Cl] [Cisplatin, cis-diaminedichloroplatinum(II), reference compound]
- ID50 (P388Pt4): 10.0 µg/mL
- Log10 Kill Net [1, 6]: 6.8
- % T/C [1, 6]: 261%
- Log10 Kill Net [1, 7]: -1.5
- % T/C [1, 7]: 132%
- ID50 (L1210PtR4): 7.84 µg/mL
- 60 Day Survivors (L-1210 Leukemia; 4.0 mg/kg/injection): 1/6
- Log10 Kill Gross (L-1210 Leukemia; 4.0 mg/kg/injection): 9.4
- Log10 Kill Net (L-1210 Leukemia; 4.0 mg/kg/injection): 0.9
- MLS (median life span) (L-1210 Leukemia; 4.0 mg/kg/injection): 19.5 days
- Weight Change (L-1210 Leukemia; 4.0 mg/kg/injection): 1.0 grams
- % T/C (L-1210 Leukemia; 4.0 mg/kg/injection): 184%
- 60 Day Survivors (L-1210 Leukemia; 6.0 mg/kg/injection): 1/6
- Log10 Kill Gross (L-1210 Leukemia; 6.0 mg/kg/injection): 8.3
- Log10 Kill Net (L-1210 Leukemia; 6.0 mg/kg/injection): -0.1
- MLS (median life span) (L-1210 Leukemia; 6.0 mg/kg/injection): 18.5 days
- Weight Change (L-1210 Leukemia; 6.0 mg/kg/injection): -1.9 grams
- % T/C (L-1210 Leukemia; 6.0 mg/kg/injection): 175%
- 60 Day Survivors ([2]; 4.0 mg/kg/injection): 0/6
- Log10 Kill Gross ([2]; 4.0 mg/kg/injection): 0.7
- Log10 Kill Net ([2]; 4.0 mg/kg/injection): -2.5
- MLS (median life span) ([2]; 4.0 mg/kg/injection): 11.1 days
- % T/C ([2]; 4.0 mg/kg/injection): 109%
- 60 Day Survivors ([2]; 6.0 mg/kg/injection): 0/6
- Log10 Kill Gross ([2]; 6.0 mg/kg/injection): 1.5
- Log10 Kill Net ([2]; 6.0 mg/kg/injection): -2.4
- MLS (median life span) ([2]; 6.0 mg/kg/injection): 12.0 days
- Weight Change ([2]; 6.0 mg/kg/injection): -3.7 grams
- % T/C ([2]; 6.0 mg/kg/injection): 118%
- ID50 (L1210DDP5): 4.11 µg/mL
- ID50 (P388S): 0.128 µg/mL
- ID50 (L1210DACH; L1210DACH): 0.52 µg/mL
- ID50 (L1210S): 0.375 µg/mL

SMILES: [Cl][Pt]1([Cl])[NH]C2CCC(CC2)[NH]1 [Example 1, [SP-4-2-(c-is)]-Dichloro(1,4-cyclohexanediamine-N,N')-platinum]
- cross resistance to cisplatin [3]: some degree of cross resistance to cisplatin
- effectiveness against cisplatin-resistant cells vs cisplatin [3]: more effective than cisplatin
- Fold resistance (resistance ratio) (P388Pt4; [8]): 30 fold
- ID50 (P388Pt4): 1.43 µg/mL
- Log10 Kill Net [1, 9]: 5.4
- % T/C [1, 9]: 234%
- Log10 Kill Net [1, 10]: 1.9
- % T/C [1, 10]: 177%
- Fold resistance (resistance ratio) (L1210PtR4; [8]): 4.9 fold
- ID50 (L1210PtR4): 1.21 µg/mL
- antitumor activity, potency and response vs cisplatin [4]: superior to cisplatin both in potency and response
- 60 Day Survivors (L-1210 Leukemia; 0.8 mg/kg/injection): 0/6
- Log10 Kill Gross (L-1210 Leukemia; 0.8 mg/kg/injection): 3.4
- Log10 Kill Net (L-1210 Leukemia; 0.8 mg/kg/injection): -1.5
- MLS (median life span) (L-1210 Leukemia; 0.8 mg/kg/injection): 13.0 days
- % T/C (L-1210 Leukemia; 0.8 mg/kg/injection): 130%
- 60 Day Survivors (L-1210 Leukemia; 1.5 mg/kg/injection): 0/6
- Log10 Kill Gross (L-1210 Leukemia; 1.5 mg/kg/injection): 13.1
- Log10 Kill Net (L-1210 Leukemia; 1.5 mg/kg/injection): 4.6
- MLS (median life span) (L-1210 Leukemia; 1.5 mg/kg/injection): 23.0 days
- % T/C (L-1210 Leukemia; 1.5 mg/kg/injection): 217%
- 60 Day Survivors (L-1210 Leukemia; 3.0 mg/kg/injection): 1/6
- Log10 Kill Gross (L-1210 Leukemia; 3.0 mg/kg/injection): 11.5
- Log10 Kill Net (L-1210 Leukemia; 3.0 mg/kg/injection): 3.1
- MLS (median life span) (L-1210 Leukemia; 3.0 mg/kg/injection): 21.5 days
- % T/C (L-1210 Leukemia; 3.0 mg/kg/injection): 203%
- 60 Day Survivors (L-1210 Leukemia; 6.3 mg/kg/injection): 0/6
- Log10 Kill Gross (L-1210 Leukemia; 6.3 mg/kg/injection): 0.1
- Log10 Kill Net (L-1210 Leukemia; 6.3 mg/kg/injection): -1.9
- MLS (median life span) (L-1210 Leukemia; 6.3 mg/kg/injection): 10.7 days
- % T/C (L-1210 Leukemia; 6.3 mg/kg/injection): 101%
- 60 Day Survivors ([2]; 0.8 mg/kg/injection): 0/6
- Log10 Kill Gross ([2]; 0.8 mg/kg/injection): 2.1
- Log10 Kill Net ([2]; 0.8 mg/kg/injection): -2.2
- MLS (median life span) ([2]; 0.8 mg/kg/injection): 12.8 days
- % T/C ([2]; 0.8 mg/kg/injection): 126%
- 60 Day Survivors ([2]; 1.5 mg/kg/injection): 0/6
- Log10 Kill Gross ([2]; 1.5 mg/kg/injection): 4.5
- Log10 Kill Net ([2]; 1.5 mg/kg/injection): -1.7
- MLS (median life span) ([2]; 1.5 mg/kg/injection): 15.7 days
- % T/C ([2]; 1.5 mg/kg/injection): 154%
- 60 Day Survivors ([2]; 3.0 mg/kg/injection): 2/6
- Log10 Kill Gross ([2]; 3.0 mg/kg/injection): 5.5
- Log10 Kill Net ([2]; 3.0 mg/kg/injection): -1.0
- MLS (median life span) ([2]; 3.0 mg/kg/injection): 17.0 days
- % T/C ([2]; 3.0 mg/kg/injection): 167%
- 60 Day Survivors ([2]; 6.3 mg/kg/injection): 0/6
- Log10 Kill Gross ([2]; 6.3 mg/kg/injection): 0.1
- Log10 Kill Net ([2]; 6.3 mg/kg/injection): -2.7
- MLS (median life span) ([2]; 6.3 mg/kg/injection): 10.3 days
- % T/C ([2]; 6.3 mg/kg/injection): 101%
- Fold resistance (resistance ratio) (L1210DDP5; [8]): 2.7 fold
- ID50 (L1210DDP5): 0.663 µg/mL
- ID50 (P388S): 0.047 µg/mL
- effectiveness against parent L1210 and P388 leukemia in vivo vs cisplatin [5]: equally effective or superior to cisplatin
- cross resistance to Pt(DACH)Cl2-resistant L1210 cells in culture (L1210DACH): four
- Fold resistance (resistance ratio) (L1210DACH; ID50 resistant line / ID50 normal line, L1210DACH, 4320 min): 4.3 fold
- ID50 (L1210DACH; L1210DACH): 1.08 µg/mL
- ID50 (L1210S): 0.248 µg/mL

SMILES: NC1CCCCC1N.[Cl][Pt][Cl] (stereo not drawn) [[Pt(trans-l-DACH)Cl2], [SP-4-2-(1R-trans)]-dichloro(1,2-cyclohexanediamine-N,N')platinum, reference compound]
- ID50 (P388Pt4): 0.83 µg/mL
- ID50 (L1210PtR4): 0.161 µg/mL
- ID50 (L1210DDP5): 0.164 µg/mL
- ID50 (P388S): 0.077 µg/mL
- cross resistance to Pt(DACH)Cl2-resistant L1210 cells in culture (L1210DACH; 4320 min): 77 fold
- ID50 (L1210DACH; L1210DACH): 4.57 µg/mL
- ID50 (L1210S): 0.059 µg/mL
